In ChEMBL document CHEMBL4346760, “Alkynamide phthalazinones as a new class of TbrPDEB1 inhibitors (Part 2)” (Bioorg Med Chem, 2019):
Calls of active or inactive are those of the source. No cut-off for these calls is given here.

Key:
[1] = Cytotoxicity against human MRC5 cells assessed as reduction in cell viability incubated for 72 hrs by resazurin dye-based fluorimetric analysis
Trypanosoma brucei [2] = assay: Antitrypanosomal activity against Trypanosoma brucei Squib 427 trypomastigotes assessed as reduction in parasite growth incubated for 72 hrs by resazurin dye-based fluorimetric analysis; format: functional, organism-based; details: Squib 427, 72 h
[3] = target: T1, Class 1 phosphodiesterase PDEB1 (Trypanosoma brucei, UniProt Q8WQX9); assay: Inhibition of Trypanosoma brucei PDEB1 catalytic domain using cAMP as substrate incubated for 20 mins by PDELight HTS cAMP phosphodiesterase Kit based luminometry
T1 sequence (Q8WQX9 whole entry): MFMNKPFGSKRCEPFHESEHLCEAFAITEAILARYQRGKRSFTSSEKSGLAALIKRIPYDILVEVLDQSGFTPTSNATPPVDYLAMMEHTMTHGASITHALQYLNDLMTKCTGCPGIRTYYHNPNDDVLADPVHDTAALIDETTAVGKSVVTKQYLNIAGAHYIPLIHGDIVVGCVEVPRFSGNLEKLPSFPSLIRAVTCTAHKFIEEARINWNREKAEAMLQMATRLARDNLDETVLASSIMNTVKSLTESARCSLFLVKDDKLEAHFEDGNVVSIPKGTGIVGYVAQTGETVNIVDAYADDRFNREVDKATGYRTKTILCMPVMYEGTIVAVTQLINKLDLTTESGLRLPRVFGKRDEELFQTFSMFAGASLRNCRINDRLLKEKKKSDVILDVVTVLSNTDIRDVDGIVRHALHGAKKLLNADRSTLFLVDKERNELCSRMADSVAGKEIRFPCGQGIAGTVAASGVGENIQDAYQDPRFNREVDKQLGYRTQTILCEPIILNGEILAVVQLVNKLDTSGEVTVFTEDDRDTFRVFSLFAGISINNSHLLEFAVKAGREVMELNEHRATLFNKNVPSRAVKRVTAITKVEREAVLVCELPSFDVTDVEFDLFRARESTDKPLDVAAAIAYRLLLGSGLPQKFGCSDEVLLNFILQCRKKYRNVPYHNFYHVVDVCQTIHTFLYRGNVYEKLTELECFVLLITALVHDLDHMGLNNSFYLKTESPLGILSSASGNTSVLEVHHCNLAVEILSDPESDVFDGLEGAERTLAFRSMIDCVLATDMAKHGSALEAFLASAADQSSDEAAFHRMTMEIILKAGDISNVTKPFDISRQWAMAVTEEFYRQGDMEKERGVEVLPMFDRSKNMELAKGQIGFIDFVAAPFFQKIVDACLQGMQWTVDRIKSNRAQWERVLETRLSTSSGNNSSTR

[4] = target: 3',5'-cyclic-AMP phosphodiesterase 4B (Homo sapiens, UniProt Q07343); assay: Inhibition of human PDE4B catalytic domain using cAMP as substrate incubated for 20 mins by PDELight HTS cAMP phosphodiesterase Kit based luminometry
[5] = Selectivity index, ratio of pKi for Trypanosoma brucei PDEB1 to pKi for human PDE4B using cAMP as substrate incubated for 20 mins by PDELight HTS cAMP phosphodiesterase Kit based luminometry
Trypanosoma brucei [6] = assay: Antitrypanosomal activity against procyclic form of Trypanosoma brucei 2913 assessed as increase in intracellular cAMP level at 1 to 10 uM by cAMP sensor based FRET assay; format: functional, organism-based
[7] = target: T1, Class 1 phosphodiesterase PDEB1; assay: Binding affinity to Trypanosoma brucei PDEB1 assessed as dissociation constant treated for 320 secs measured for 900 secs by SPR assay
[8] = target: T2, 3',5'-cyclic-AMP phosphodiesterase 4D (Homo sapiens, UniProt Q08499); assay: Binding affinity to human PDE4D assessed as dissociation constant treated for 320 secs measured for 900 secs by SPR assay
Trypanosoma brucei [9] = assay: Antitrypanosomal activity against bloodstream form of Trypanosoma brucei 221 cells assessed as blockade in cytokinesis with multiple flagella and nuclei formation at 1 uM incubated for 24 to 48 hrs by DAPI/PFR-staining based fluorescence microscopy; format: functional, organism-based
[10] = target: T2, 3',5'-cyclic-AMP phosphodiesterase 4D; assay: Binding affinity to human PDE4D assessed as dissociation constant treated for 60 secs measured for 300 secs by SPR assay
[11] = target: T1, Class 1 phosphodiesterase PDEB1; assay: Binding affinity to Trypanosoma brucei PDEB1 assessed as dissociation constant treated for 60 secs measured for 300 secs by SPR assay

Sequence of 3',5'-cyclic-AMP phosphodiesterase 4B (Q07343 whole entry, the tested form may be a part): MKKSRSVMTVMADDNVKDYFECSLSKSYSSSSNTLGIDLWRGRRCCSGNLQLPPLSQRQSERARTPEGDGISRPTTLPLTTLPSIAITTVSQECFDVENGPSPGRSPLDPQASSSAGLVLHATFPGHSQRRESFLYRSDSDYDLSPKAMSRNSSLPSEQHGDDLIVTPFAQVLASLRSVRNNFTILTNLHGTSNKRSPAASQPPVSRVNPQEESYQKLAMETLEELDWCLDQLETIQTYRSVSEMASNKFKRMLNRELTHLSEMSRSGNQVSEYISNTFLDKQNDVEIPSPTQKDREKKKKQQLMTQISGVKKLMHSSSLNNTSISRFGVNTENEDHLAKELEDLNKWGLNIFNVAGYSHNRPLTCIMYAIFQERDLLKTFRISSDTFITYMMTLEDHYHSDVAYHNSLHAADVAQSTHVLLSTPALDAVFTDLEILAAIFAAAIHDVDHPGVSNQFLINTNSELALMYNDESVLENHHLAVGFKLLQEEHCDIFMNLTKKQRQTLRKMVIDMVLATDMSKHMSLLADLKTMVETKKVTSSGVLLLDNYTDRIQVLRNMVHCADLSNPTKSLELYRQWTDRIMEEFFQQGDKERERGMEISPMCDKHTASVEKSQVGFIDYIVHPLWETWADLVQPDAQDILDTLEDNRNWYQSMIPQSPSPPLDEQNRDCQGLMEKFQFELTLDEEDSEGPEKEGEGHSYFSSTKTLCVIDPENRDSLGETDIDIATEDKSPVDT
T2 sequence (Q08499 whole entry): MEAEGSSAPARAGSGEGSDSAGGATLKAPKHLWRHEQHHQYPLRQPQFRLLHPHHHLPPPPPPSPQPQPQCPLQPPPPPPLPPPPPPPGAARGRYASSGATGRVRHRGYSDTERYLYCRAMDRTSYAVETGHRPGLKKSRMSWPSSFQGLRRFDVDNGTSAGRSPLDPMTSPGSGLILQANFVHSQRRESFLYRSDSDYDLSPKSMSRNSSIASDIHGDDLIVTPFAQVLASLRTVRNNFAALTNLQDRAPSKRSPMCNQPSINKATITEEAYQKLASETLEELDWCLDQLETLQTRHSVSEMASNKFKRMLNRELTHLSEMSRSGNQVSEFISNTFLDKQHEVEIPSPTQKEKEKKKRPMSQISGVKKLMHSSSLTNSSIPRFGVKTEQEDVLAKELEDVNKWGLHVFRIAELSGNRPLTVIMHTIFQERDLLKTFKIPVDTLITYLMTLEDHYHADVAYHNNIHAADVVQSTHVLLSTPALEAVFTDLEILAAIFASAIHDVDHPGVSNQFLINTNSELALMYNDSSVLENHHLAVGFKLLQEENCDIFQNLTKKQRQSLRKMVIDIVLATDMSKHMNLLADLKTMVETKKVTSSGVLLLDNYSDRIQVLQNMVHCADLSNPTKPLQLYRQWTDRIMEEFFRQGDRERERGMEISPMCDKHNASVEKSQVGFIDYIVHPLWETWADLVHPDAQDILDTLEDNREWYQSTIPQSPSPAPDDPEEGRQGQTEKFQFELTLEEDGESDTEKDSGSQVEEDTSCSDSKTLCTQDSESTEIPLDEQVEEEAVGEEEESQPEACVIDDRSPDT

Compound | IC50 (Trypanosoma brucei [2]) [nM] | Ki [3] [nM] | Ki [4] [nM] | Ratio pKi [5] | Kd [7] [nM] | Kd [8] [nM] | Kd [10] [nM] | Kd [11] [nM] | CC50 at 72 h [1] [nM] | Activity (Trypanosoma brucei [6]) | Activity (Trypanosoma brucei [9])
COc1ccc(C2=NN(C(C)C)C(=O)[C@@H]3CC=CC[C@H]23)cc1C#CC(=O)NCc1cnn(C)c1 | 1580 | 126 | 631 | – | – | – | – | – | 20000 | – | –
COc1ccc(C2=NN(C(C)C)C(=O)[C@@H]3CC=CC[C@H]23)cc1C#CC(=O)NCCCn1ccnc1 (relative stereo) | 7940 | 398 | 631 | – | – | – | – | – | 251 | – | –
COc1ccc(C2=NN(C(C)C)C(=O)[C@@H]3CC=CC[C@H]23)cc1C#CC(=O)NCc1ccco1 (relative stereo) | 2510 | 126 | 398 | – | – | – | – | – | > 63100 | – | –
COc1ccc(C2=NN(C(C)C)C(=O)[C@@H]3CC=CC[C@H]23)cc1C#CC(=O)NCc1sc(C)nc1C (relative stereo) | 2000 | 200 | 251 | – | – | – | – | – | 7940 | – | –
COc1cccc(NC(=O)C#Cc2cc(C3=NN(C(C)C)C(=O)[C@@H]4CC=CC[C@H]34)ccc2OC)c1 (relative stereo) | 1580 | 200 | 1000 | – | – | – | – | – | > 63100 | – | –
COc1ccc(C2=NN(C(C)C)C(=O)[C@@H]3CC=CC[C@H]23)cc1C#CC(=O)N1CC(C#N)C1 (relative stereo) | 7940 | 631 | 398 | – | – | – | – | – | 7940 | – | –
COc1ccc(C2=NN(C(C)C)C(=O)[C@@H]3CC=CC[C@H]23)cc1C#CC(N)=O (relative stereo) | 6310 | 501 | 316 | – | – | – | 251 | 794 | 31600 | – | –
COc1ccc(C2=NN(C(C)C)C(=O)[C@@H]3CC=CC[C@H]23)cc1C#CC(=O)Nc1cnn(C)n1 (relative stereo) | > 63100 | 2510 | 501 | – | – | – | – | – | 10000 | – | –
COc1ccc(C2=NN(C(C)C)C(=O)[C@@H]3CC=CC[C@H]23)cc1C#CC(=O)N1CCOCC1 (relative stereo) | 10000 | 1000 | 794 | – | – | – | – | – | 31600 | – | –
COc1ccc(C2=NN(C(C)C)C(=O)[C@@H]3CC=CC[C@H]23)cc1C#CC(=O)NCCc1nccs1 (relative stereo) | 5010 | 251 | 398 | – | – | – | – | – | 10000 | – | –
COc1ccc(C2=NN(C(C)C)C(=O)[C@@H]3CC=CC[C@H]23)cc1C#CC(=O)Nc1ccn(CCCC#N)n1 (relative stereo) | 2000 | 794 | 1260 | – | – | – | – | – | 7940 | – | –
CCCCNC(=O)C#Cc1cc(C2=NN(C(C)C)C(=O)[C@@H]3CC=CC[C@H]23)ccc1OC (relative stereo) | 7940 | 316 | 501 | – | – | – | – | – | > 63100 | – | –
COc1ccc(C2=NN(C(C)C)C(=O)[C@@H]3CC=CC[C@H]23)cc1C#CC(=O)NCCC#N (relative stereo) | 25100 | 1000 | 794 | – | – | – | – | – | 31600 | – | –
COc1ccc(C2=NN(C(C)C)C(=O)[C@@H]3CC=CC[C@H]23)cc1C#CC(=O)NCc1csc(C)n1 (relative stereo) | 2000 | 316 | 1000 | – | – | – | – | – | 12600 | – | –

Further lines, with some results ahead:

IC50 (Trypanosoma brucei [2]) [nM] | Ki [3] [nM] | Ki [4] [nM] | Ratio pKi [5] | Kd [7] [nM] | Kd [8] [nM] | Kd [10] [nM] | Kd [11] [nM] | Compound | CC50 at 72 h [1] [nM] | Activity (Trypanosoma brucei [6]) | Activity (Trypanosoma brucei [9])
– | 631 | 316 | – | – | – | – | – | COc1ccc(C2=NN(C3CCCCCC3)C(=O)[C@@H]3CC=CC[C@H]23)cc1C#CC(N)=O | – | – | –
– | – | – | 1 | – | – | – | – | COc1ccc(C2=NN(C3CCCCCC3)C(=O)[C@@H]3CC=CC[C@H]23)cc1-c1ccc(C(=O)NCC(N)=O)cc1 | – | – | –
631 | 158 | 794 | – | 79.4 | 79.4 | – | – | COc1ccc(C2=NN(C(C)C)C(=O)[C@@H]3CC=CC[C@H]23)cc1C#CC(=O)NCc1ccccc1 (relative stereo) | > 63100 | Active | Active
3160 | 200 | 200 | – | – | – | – | – | COc1ccc(C2=NN(C(C)C)C(=O)[C@@H]3CC=CC[C@H]23)cc1C#CC(=O)NCc1ccc(C)o1 (relative stereo) | > 63100 | – | –
2510 | 398 | 794 | – | – | – | – | – | COc1ccc(C2=NN(C(C)C)C(=O)[C@@H]3CC=CC[C@H]23)cc1C#CC(=O)NCCc1cccs1 (relative stereo) | > 63100 | – | –
2000 | 316 | 794 | – | – | – | – | – | COc1ccc(C2=NN(C(C)C)C(=O)[C@@H]3CC=CC[C@H]23)cc1C#CC(=O)NCCc1ccccc1F (relative stereo) | > 63100 | – | –
1260 | 100 | 501 | – | – | – | – | – | COc1ccc(C2=NN(C(C)C)C(=O)[C@@H]3CC=CC[C@H]23)cc1C#CC(=O)NCc1cccnc1 (relative stereo) | 3980 | – | –
1000 | 100 | 631 | – | – | – | – | – | COc1ccc(C2=NN(C(C)C)C(=O)[C@@H]3CC=CC[C@H]23)cc1C#CC(=O)NCc1ccncc1 (relative stereo) | 31600 | Active | Active
6310 | 316 | 794 | – | – | – | – | – | COc1ccc(C2=NN(C(C)C)C(=O)[C@@H]3CC=CC[C@H]23)cc1C#CC(=O)NCC1CCC1 (relative stereo) | > 63100 | – | –
1000 | 126 | 501 | – | – | – | – | – | COc1ccc(C2=NN(C(C)C)C(=O)[C@@H]3CC=CC[C@H]23)cc1C#CC(=O)NCc1cccs1 (relative stereo) | 63100 | – | –
7940 | 398 | 316 | – | – | – | – | – | COc1ccc(C2=NN(C(C)C)C(=O)[C@@H]3CC=CC[C@H]23)cc1C#CC(=O)NCC1CC1 (relative stereo) | > 63100 | – | –
7940 | 398 | 1260 | – | – | – | – | – | COc1ccc(C2=NN(C(C)C)C(=O)[C@@H]3CC=CC[C@H]23)cc1C#CC(=O)NCC1CCCO1 (relative stereo) | 31600 | – | –
